The target in one assay is human PDHK2 (hPDHK2) (Homo sapiens (Human), UniProt Q15119). Description: Inhibitory action of PDHK2 activity in vitro (residual PDH activity after PDHK reaction). The note with it: for IC50: PDH/hPDHK2 complex solution, PDHK reaction at room temperature for 45 min, NADH absorbance at 340 nm, read-out: kPDK2 IC50. Type of assay: biochemical. The method, then: (§1) The inhibitory action of PDHK activity was assessed indirectly by measuring the residual PDH activity after PDHK reaction in the presence of a test compound.
(Inhibitory Action of PDHK2 Activity)
In the case of human PDHK2 (hPDHK2, NCBI Reference Database Accession number NM_002611.4), modified hPDHK2 cDNA wherein FLAG-Tag sequence was added to the N terminus of hPDHK2 cDNA clone (pReceiver-M01/PDK2-GeneCopoeia) as the base was prepared by PCR and ligated to the NdeI/EcoRI site of pET-17b vector. The recombinant construct was transformed into Escherichia coli DH5a. The recombinant clones were identified, and plasmid DNA was isolated and subjected to the DNA sequence analysis. One clone which had the expected nucleic acid sequence was selected for expression work.
For expression of hPDHK2 activity, Escherichia coli strain BL21(DE3) cells were transformed with the pET17b vector containing modified hPDHK2 cDNA. The Escherichia coli were grown to an optical density 0.6 ([…]) at 30° C. Protein expression was induced by the addition of 500 μmol/L isopropyl-β-thiogalactopyranoside. The Escherichia coli were cultured at 20° C. for 17-18 hr and harvested by centrifugation. The harvested Escherichia coli was resuspended in a suspension buffer (20 mmol/L HEPES-NaOH, 500 mmol/L sodium chloride, 1% ethylene glycol, 0.1% pluronic F-68 (pH 8.0), cOmplete, EDTA-free (pH 8.0)), and disrupted by a microfluidizer. The precipitate was removed by centrifugation and the supernatant was added to DDDDK-tagged Protein PURIFICATION GEL. DDDDK-tagged Protein PURIFICATION GEL was washed with a washing buffer (20 mmol/L HEPES-NaOH, 500 mmol/L sodium chloride, 1% ethylene glycol, 0.1% pluronic F-68 (pH 8.0)) and the bound protein was eluted with elution buffer 1 (20 mmol/L HEPES-NaOH, 100 μg/mL peptide (amino acid sequence DYKDDDDK) (SEQ ID NO: 1), 500 mmol/L sodium chloride, 1% ethylene glycol, 0.1% pluronic F-68 (pH 8.0)). The eluted fractions containing FLAG-Tagged protein were pooled, concentrated by an ultrafiltration method, added to a gel filtration column (HiLoad 26/60 Superdex 200), and eluted with elution buffer 2 (20 mmol/L HEPES-NaOH, 150 mmol/L sodium chloride, 0.5 mmol/L ethylenediaminetetraacetic acid (EDTA), 1% ethylene glycol, 0.1% pluronic F-68 (pH 8.0)). The eluted fractions were pooled and preserved at −80° C.
0.025 U/mL PDH and 0.5 μg/mL hPDHK2 were mixed in an assay buffer (50 mmol/L 3-morpholinopropanesulfonic acid (pH 7.0), 20 mmol/L dipotassium hydrogen phosphate, 60 mmol/L potassium chloride, 2 mmol/L magnesium chloride, 0.4 mmol/L EDTA, 0.2% poloxamer, 2 mmol/L dithiothreitol), and the mixture was incubated at 4° C. overnight to obtain a PDH/hPDHK2 complex solution. In the assay buffer, 0.025 U/mL PDH was mixed and incubated at 4° C. overnight to prepare a PDH solution.
The test compounds were diluted with DMSO. To measure an inhibitory action of the test compound on the PDHK activity in the PDH/hPDHK2 complex solution, PDH/hPDHK2 complex solution (20 μL), test compound (1.5 μL) and 1.06 μmol/L ATP (diluted with assay buffer) (8.5 μL) were added to a 384 well microplate and PDHK reaction was performed at room temperature for 45 min (test compound well). DMSO (1.5 μL) was added to control wells instead of test compound. In addition, DMSO (1.5 μL) was added to blank wells instead of the test compound, and PDH solution was added instead of the PDH/hPDHK2 complex solution. To measure an inhibitory action of the test compound on the PDHK activity inherent in the PDH solution, a test compound was added and the PDH solution instead of the PDH/hPDHK2 complex solution was added to a blank+test compound well.
Then, 10 μL of substrates (5 mmol/L sodium pyruvate, 5 mmol/L Coenzyme A, 12 mmol/L NAD, 5 mmol/L thiamine pyrophosphate, diluted with assay buffer) were added. The mixture was incubated at room temperature for 90 min, and the residual PDH activity was measured. […]

The next assay deals with human PDHK1 (hPDHK1) (Homo sapiens (Human), UniProt Q15118). Description: Inhibitory action of PDHK1 activity in vitro (residual PDH activity after PDHK reaction). Type of assay: biochemical. Conditions: PDH/hPDHK1 complex solution, PDHK reaction at room temperature for 45 min, NADH absorbance at 340 nm; read-out: hPDK1 IC50. The method, then:
as §1
(Inhibitory Action of PDHK1 Activity)
In the case of human PDHK1 (hPDHK1, NCBI Reference Database Accession number NM_002610.3), a 1.3 kbp fragment encoding this protein was isolated from human liver cDNA by polymerase chain reaction (PCR). Modified hPDHK1 cDNA wherein FLAG-Tag sequence was added to the N terminus was prepared by PCR and ligated to the NdeI/EcoRI site of pET-17b vector (Merck MGaA, model number 69663-3). The recombinant construct was transformed into Escherichia coli DH5a (TOYOBO, model number DNA-903). The recombinant clones were identified, and plasmid DNA was isolated and subjected to the DNA sequence analysis. One clone which had the expected nucleic acid sequence was selected for expression work.
For expression of hPDHK1 activity, Escherichia coli strain BL21(DE3) cells (Merck KGaA, model number 69450-4) were transformed with the pET17b vector containing modified hPDHK1 cDNA. The Escherichia coli were grown to an optical density 0.6 ([…]) at 30° C. Protein expression was induced by the addition of 500 μmol/L isopropyl-β-thiogalactopyranoside. The Escherichia coli were cultured at 20° C. for 17-18 hr and harvested by centrifugation.
The harvested Escherichia coli was resuspended in a suspension buffer (20 mmol/L N-(2-hydroxyethyl)piperazine-N′-2-ethanesulfonic acid-sodium hydroxide (HEPES-NaOH), 500 mmol/L sodium chloride, 1% ethylene glycol, and 0.1% polyoxyethylene-polyoxypropylene block copolymer (Pluronic F-68), complete, EDTA-free (pH 8.0)) and disrupted by a microfluidizer M-110H (MIZUHO INDUSTRIAL CO., LTD.) or ultrasonication. The precipitate was removed by centrifugation and the supernatant was added to DDDDK-tagged Protein PURIFICATION GEL (MBL, model number 3329). DDDDK-tagged Protein PURIFICATION GEL was washed with a washing buffer (20 mmol/L HEPES-NaOH, 500 mmol/L sodium chloride, 1% ethylene glycol, 0.1% pluronic F-68 (pH 8.0)) and the bound protein was eluted with elution buffer 1 (20 mmol/L HEPES-NaOH, 100 μg/mL peptide (amino acid sequence DYKDDDDK) (SEQ ID NO: 1), 500 mmol/L sodium chloride, 1% ethylene glycol, 0.1% pluronic F-68 (pH 8.0)).
The eluted fractions containing FLAG-Tagged protein were pooled, concentrated by an ultrafiltration method, added to a gel filtration column (HiLoad 26/60 Superdex 200 (GE Healthcare, model number 17-1070-01)), and eluted with elution buffer 2 (20 mmol/L HEPES-NaOH, 150 mmol/L sodium chloride, 0.5 mmol/L ethylenediaminetetraacetic acid (EDTA), 1% ethylene glycol, 0.1% pluronic F-68 (pH 8.0)). The eluted fractions were pooled and preserved at −80° C.
0.025 U/mL PDH (porcine heart PDH complex, Sigma P7032) and 0.5 μg/mL hPDHK1 were mixed in an assay buffer (50 mmol/L 3-morpholinopropanesulfonic acid (pH 7.0), 20 mmol/L dipotassium hydrogen phosphate, 60 mmol/L potassium chloride, 2 mmol/L magnesium chloride, 0.4 mmol/L EDTA, 0.2% poloxamer, 2 mmol/L dithiothreitol), and the mixture was incubated at 4° C. overnight to obtain a PDH/hPDHK1 complex solution. In the assay buffer, 0.025 U/mL PDH was mixed and incubated at 4° C. overnight to prepare a PDH solution.
The test compounds were diluted with dimethyl sulfoxide (DMSO). To measure an inhibitory action of the test compound on the PDHK activity in the PDH/hPDHK1 complex solution, PDH/hPDHK1 complex solution (20 μL), test compound (1.5 μL) and 0.353 μmol/L ATP (diluted with assay buffer) (8.5 μL) were added to a 384 well microplate (Greiner Bio-One 781801) and PDHK reaction was performed at room temperature for 45 min (test compound well). DMSO (1.5 μL) was added to control wells instead of test compound. In addition, DMSO (1.5 μL) was added to blank wells instead of the test compound, and PDH solution was added instead of the PDH/hPDHK1 complex solution. […]

Sequence of human PDHK1 (hPDHK1) (Q15118 29-436): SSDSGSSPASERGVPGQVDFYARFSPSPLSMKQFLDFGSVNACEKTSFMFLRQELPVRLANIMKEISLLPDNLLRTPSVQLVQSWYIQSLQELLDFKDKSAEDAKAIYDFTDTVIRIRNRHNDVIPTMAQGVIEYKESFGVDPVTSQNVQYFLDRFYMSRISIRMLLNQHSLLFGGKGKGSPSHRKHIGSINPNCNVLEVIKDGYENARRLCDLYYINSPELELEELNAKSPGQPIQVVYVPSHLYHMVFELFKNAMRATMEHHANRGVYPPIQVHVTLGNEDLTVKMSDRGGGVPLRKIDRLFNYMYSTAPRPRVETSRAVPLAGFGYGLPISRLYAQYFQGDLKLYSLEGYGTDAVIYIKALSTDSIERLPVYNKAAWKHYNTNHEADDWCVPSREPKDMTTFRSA

What is called IC50 is the concentration that inhibits the measured activity by half. For `C[C@H]1CN(C(=O)c2cc(-c3ccccc3)nn2C)Cc2cnc([C@@](C)(O)C(F)(F)F)n21` [Example 15], the 50% inhibitory concentration (IC50) at human PDHK2 (hPDHK2) turned out to be 5 nM; on human PDHK1 (hPDHK1), 3 nM.

`C[C@H]1CN(C(=O)c2cc(-c3ccc(F)cc3)nn2C)Cc2cnc([C@@](C)(O)C(F)(F)F)n21` [Example 16, (3-(4-fluorophenyl)-1-methyl-1H-pyrazol-5-yl) ((S)-5-methyl-3-((R)-1,1,1-trifluoro-2-hydroxypropan-2-yl)-5,6-dihydroimidazo[1,5-a]pyrazin-7(8H)-yl)methanone]: the IC50 on human PDHK2 (hPDHK2) worked out at 7 nM; at human PDHK1 (hPDHK1), 6 nM.

For the molecule `C[C@H]1CN(C(=O)c2cnn(-c3ccc(F)cc3)c2C(F)(F)F)Cc2cnc([C@@](C)(O)C(F)(F)F)n21` [Example 17], the half-maximal inhibitory concentration (IC50) at human PDHK2 (hPDHK2) was found to be 7 nM; at human PDHK1 (hPDHK1), 8 nM.

On to `C[C@H]1CN(C(=O)c2ccc(C3CC3)cc2)Cc2cnc([C@@](C)(O)C(F)(F)F)n21` [Example 18], for which the IC50 on human PDHK2 (hPDHK2) and at human PDHK1 (hPDHK1) was 7 nM in each case.

With `C[C@H]1CN(C(=O)c2c(C#N)c(C3CC3)nn2C)Cc2cnc([C@@](C)(O)C(F)(F)F)n21` [Example 19], the IC50 at human PDHK2 (hPDHK2) is less than 3 nM; on human PDHK1 (hPDHK1) it was 5 nM. Moreover, the “hPDHK2 inhibitory rate at the lowest concentration of the test compound” value at human PDHK2 (hPDHK2) (lowest concentration of the test compound in the assay (<3 nmol/L), shown when IC50 value could not be calculated) is 67%.

Regarding `C[C@H]1CN(C(=O)c2cc(C3CCOCC3)nn2C)Cc2cnc([C@@](C)(O)C(F)(F)F)n21` [Example 20], the figures for the concentration for half-maximal inhibition (IC50) at human PDHK2 (hPDHK2) and at human PDHK1 (hPDHK1) were 12 nM and 8 nM, respectively.

Take `C[C@H]1CN(C(=O)c2cc(C3CC3)on2)Cc2cnc([C@@](C)(O)C(F)(F)F)n21` [Example 21]: the IC50 was 12 nM at human PDHK2 (hPDHK2) and 13 nM on human PDHK1 (hPDHK1).

Regarding `C[C@H]1CN(C(=O)c2c(Cl)c(C3CC3)nn2C)Cc2cnc([C@@](C)(O)C(F)(F)F)n21` [Example 22], the concentration for half-maximal inhibition (IC50) is 8 nM on human PDHK2 (hPDHK2) and 6 nM at human PDHK1 (hPDHK1).

`C[C@H]1CN(C(=O)c2ccc(F)c(C3CC3)n2)Cc2cnc([C@@](C)(O)C(F)(F)F)n21` [Example 23]: the IC50 stood at 12 nM on human PDHK2 (hPDHK2) and 6 nM at human PDHK1 (hPDHK1).

On to `C[C@H]1CN(C(=O)c2ccc(=O)n(C3CC3)c2)Cc2cnc([C@@](C)(O)C(F)(F)F)n21` [Example 24], for which the figures for the IC50 at human PDHK2 (hPDHK2) and at human PDHK1 (hPDHK1) were 36 nM and 42 nM, respectively.

Take `COc1ccc(-c2cc(C(=O)N3Cc4cnc([C@@](C)(O)C(F)(F)F)n4[C@@H](C)C3)no2)cc1` [Example 25]: the IC50 at human PDHK2 (hPDHK2) was found to be 14 nM; on human PDHK1 (hPDHK1), 7 nM.

Consider `C[C@H]1CN(C(=O)c2cc(-c3ccc(F)cc3)on2)Cc2cnc([C@@](C)(O)C(F)(F)F)n21` [Example 26], for which the half-inhibitory concentration (IC50) on human PDHK2 (hPDHK2) was found to be 14 nM; on human PDHK1 (hPDHK1), 9 nM.

On to `C[C@H]1CN(C(=O)c2ccc(F)cc2C2CC2)Cc2cnc([C@@](C)(O)C(F)(F)F)n21` [Example 27], for which the half-maximal inhibitory concentration (IC50) at human PDHK2 (hPDHK2) came out at 8 nM; at human PDHK1 (hPDHK1) it was 9 nM.

For `C[C@H]1CN(C(=O)c2ccc(C#N)c(C3CC3)c2)Cc2cnc([C@@](C)(O)C(F)(F)F)n21` [Example 28], the results for the half-maximal inhibitory concentration (IC50) on human PDHK2 (hPDHK2) and at human PDHK1 (hPDHK1) were 10 nM and 12 nM, respectively.

Consider `C[C@H]1CN(C(=O)c2cc(C3CC3)nn2C2CC2)Cc2cnc([C@@](C)(O)C(F)(F)F)n21` [Example 29], for which the half-inhibitory concentration (IC50) at human PDHK2 (hPDHK2) and at human PDHK1 (hPDHK1) was 7 nM each time.

Regarding `C[C@H]1CN(C(=O)c2ccc(C3CC3)nc2)Cc2cnc([C@@](C)(O)C(F)(F)F)n21` [Example 30], the IC50 came out at 13 nM at human PDHK2 (hPDHK2) and 20 nM on human PDHK1 (hPDHK1).

As for `C[C@H]1CN(C(=O)c2cc(-c3ccc(C#N)cc3)nn2C)Cc2cnc([C@@](C)(O)C(F)(F)F)n21` [Example 31], the figures for the 50% inhibitory concentration (IC50) at human PDHK2 (hPDHK2) and on human PDHK1 (hPDHK1) were 11 nM and 9 nM, respectively.

Regarding `C[C@H]1CN(C(=O)c2ccnn2C2CC2)Cc2cnc([C@@](C)(O)C(F)(F)F)n21` [Example 32], the IC50 on human PDHK2 (hPDHK2) came out at 10 nM; on human PDHK1 (hPDHK1), 13 nM.

`C[C@H]1CN(C(=O)c2cc(-c3ccc(C#N)cc3)n(C)n2)Cc2cnc([C@@](C)(O)C(F)(F)F)n21` [Example 33]: the IC50 on human PDHK2 (hPDHK2) amounted to 16 nM; at human PDHK1 (hPDHK1) it was 12 nM.

In the case of `C[C@H]1CN(C(=O)c2cc(-c3ccc(F)cc3)n[nH]2)Cc2cnc([C@@](C)(O)C(F)(F)F)n21` [Example 34], the values for the half-inhibitory concentration (IC50) at human PDHK2 (hPDHK2) and at human PDHK1 (hPDHK1) were 13 nM and 10 nM, respectively.

Source of the values: US10800784B2, “Nitrogen-containing heterocyclic amide compound and pharmaceutical use thereof” (Japan Tobacco Inc., priority 2018, dated 2020).
